Assay results taken from PubChem BioAssay (NCI).
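Compound exposure: 48 hours, 5 concentrations, 96-well plates. GI50 is the concentration that inhibits growth by half. TGI: concentration producing complete growth inhibition.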

Assays:
Test in all cases: NCI-60 cell line screen, 48 h
T-47D breast = test system: T-47D breast
IGROV1 ovarian = test system: IGROV1 ovarian
MDA-MB-435 = test system: MDA-MB-435
A549 NSCLC = test system: A549 NSCLC
TK-10 renal = test system: TK-10 renal
DU-145 prostate = test system: DU-145 prostate
786-0 renal = test system: 786-0 renal
SK-MEL-2 melanoma = test system: SK-MEL-2 melanoma
HOP-92 NSCLC = test system: HOP-92 NSCLC
UACC-257 melanoma = test system: UACC-257 melanoma
A498 renal = test system: A498 renal
LOX IMVI melanoma = test system: LOX IMVI melanoma
HCC-2998 colon = test system: HCC-2998 colon
HCT-116 colon = test system: HCT-116 colon
PC-3 prostate = test system: PC-3 prostate
MOLT-4 leukemia = test system: MOLT-4 leukemia
BT-549 breast = test system: BT-549 breast
RPMI-8226 leukemia = test system: RPMI-8226 leukemia
HL-60(TB) leukemia = test system: HL-60(TB) leukemia
SF-268 CNS = test system: SF-268 CNS
HOP-62 NSCLC = test system: HOP-62 NSCLC
MCF7 breast = test system: MCF7 breast
OVCAR-8 ovarian = test system: OVCAR-8 ovarian
UACC-62 melanoma = test system: UACC-62 melanoma
HT29 colon = test system: HT29 colon
RXF 393 renal = test system: RXF 393 renal
KM12 colon = test system: KM12 colon
NCI-H460 lung = test system: NCI-H460 lung
U251 CNS = test system: U251 CNS
ACHN renal = test system: ACHN renal
SF-539 CNS = test system: SF-539 CNS
EKVX NSCLC = test system: EKVX NSCLC
NCI-H522 lung = test system: NCI-H522 lung
CAKI-1 renal = test system: CAKI-1 renal
HS 578T breast = test system: HS 578T breast
SW-620 colon = test system: SW-620 colon
SN12C renal = test system: SN12C renal
MALME-3M melanoma = test system: MALME-3M melanoma
SK-MEL-5 melanoma = test system: SK-MEL-5 melanoma
SR leukemia = test system: SR leukemia
M14 melanoma = test system: M14 melanoma
SK-OV-3 ovarian = test system: SK-OV-3 ovarian
MDA-MB-231 breast = test system: MDA-MB-231 breast
SF-295 CNS = test system: SF-295 CNS
OVCAR-4 ovarian = test system: OVCAR-4 ovarian
SNB-19 CNS = test system: SNB-19 CNS
SNB-75 CNS = test system: SNB-75 CNS
NCI-H226 lung = test system: NCI-H226 lung
NCI/ADR-RES ovarian = test system: NCI/ADR-RES ovarian
SK-MEL-28 melanoma = test system: SK-MEL-28 melanoma
K-562 leukemia = test system: K-562 leukemia
HCT-15 colon = test system: HCT-15 colon
UO-31 renal = test system: UO-31 renal
COLO 205 colon = test system: COLO 205 colon
CCRF-CEM leukemia = test system: CCRF-CEM leukemia
OVCAR-3 ovarian = test system: OVCAR-3 ovarian
OVCAR-5 ovarian = test system: OVCAR-5 ovarian

## c1ccc2c(NCCCN3CCOCC3)c3oc4ccccc4c3nc2c1
T-47D breast
  GI50: 2610 nM
  TGI: 9770 nM
IGROV1 ovarian
  GI50: 2260 nM
  TGI: 12000 nM
MDA-MB-435
  GI50: 1260 nM
  TGI: 2610 nM
A549 NSCLC
  GI50: 1580 nM
  TGI: 12600 nM
TK-10 renal
  GI50: 2550 nM
  TGI: 9750 nM
DU-145 prostate
  GI50: 1550 nM
  TGI: 16200 nM
786-0 renal
  GI50: 1950 nM
  TGI: 14000 nM
SK-MEL-2 melanoma
  GI50: 1730 nM
  TGI: 3290 nM
HOP-92 NSCLC
  GI50: 2100 nM
  TGI: 5820 nM
UACC-257 melanoma
  GI50: 1940 nM
  TGI: 4080 nM
A498 renal
  GI50: 2010 nM
  TGI: 4410 nM
LOX IMVI melanoma
  GI50: 568 nM
  TGI: 3230 nM
HCC-2998 colon
  GI50: 1100 nM
  TGI: 3720 nM
HCT-116 colon
  GI50: 437 nM
  TGI: 11100 nM
PC-3 prostate
  GI50: 1890 nM
  TGI: 7590 nM
MOLT-4 leukemia
  GI50: 476 nM
  TGI: 38100 nM
BT-549 breast
  GI50: 2030 nM
  TGI: 4750 nM
RPMI-8226 leukemia
  GI50: 1720 nM
  TGI: 6280 nM
HL-60(TB) leukemia
  GI50: 2340 nM
  TGI: 8590 nM
SF-268 CNS
  GI50: 1250 nM
  TGI: 15500 nM
HOP-62 NSCLC
  GI50: 1670 nM
  TGI: 8180 nM
MCF7 breast
  GI50: 1020 nM
  TGI: 5830 nM
OVCAR-8 ovarian
  GI50: 1170 nM
  TGI: 11200 nM
UACC-62 melanoma
  GI50: 2160 nM
  TGI: 5490 nM
HT29 colon
  GI50: 566 nM
  TGI: 2330 nM
RXF 393 renal
  GI50: 1290 nM
  TGI: 3220 nM
KM12 colon
  GI50: 1460 nM
  TGI: 15300 nM
NCI-H460 lung
  GI50: 459 nM
  TGI: 5960 nM
U251 CNS
  GI50: 1490 nM
  TGI: 11000 nM
ACHN renal
  GI50: 577 nM
  TGI: 20100 nM
SF-539 CNS
  GI50: 1500 nM
  TGI: 3460 nM
EKVX NSCLC
  GI50: 2540 nM
  TGI: 13200 nM
NCI-H522 lung
  GI50: 1280 nM
  TGI: 3150 nM
CAKI-1 renal
  GI50: 1100 nM
  TGI: 11100 nM
HS 578T breast
  GI50: 2080 nM
  TGI: 6990 nM
SW-620 colon
  GI50: 509 nM
  TGI: 10500 nM
SN12C renal
  GI50: 1020 nM
  TGI: 11500 nM
MALME-3M melanoma
  GI50: 1820 nM
  TGI: 3850 nM
SK-MEL-5 melanoma
  GI50: 1980 nM
  TGI: 3990 nM
SR leukemia
  GI50: 599 nM
  TGI: 10100 nM
M14 melanoma
  GI50: 1660 nM
  TGI: 4110 nM
SK-OV-3 ovarian
  GI50: 3140 nM
  TGI: 18600 nM
MDA-MB-231 breast
  GI50: 1540 nM
  TGI: 7140 nM
SF-295 CNS
  GI50: 1590 nM
  TGI: 10700 nM
OVCAR-4 ovarian
  GI50: 1240 nM
  TGI: 5140 nM
SNB-19 CNS
  GI50: 1870 nM
  TGI: 13100 nM
SNB-75 CNS
  GI50: 1310 nM
  TGI: 2600 nM
NCI-H226 lung
  GI50: 1930 nM
  TGI: 5300 nM
NCI/ADR-RES ovarian
  GI50: 692 nM
  TGI: 10900 nM
SK-MEL-28 melanoma
  GI50: 1880 nM
  TGI: 3790 nM
K-562 leukemia
  GI50: 649 nM
  TGI: > 100000 nM
HCT-15 colon
  GI50: 719 nM
  TGI: 12200 nM
UO-31 renal
  GI50: 1730 nM
  TGI: 11700 nM
COLO 205 colon
  GI50: 949 nM
  TGI: 2770 nM
CCRF-CEM leukemia
  GI50: 1640 nM
  TGI: 15000 nM
OVCAR-3 ovarian
  GI50: 2410 nM
  TGI: 45400 nM
OVCAR-5 ovarian
  GI50: 1570 nM
  TGI: 7280 nM
